Tested on: B16 melanocytes
Assay: Inhibition of melanin synthesis in B16 melanocytes
Format: cell-based
Conditions: 0.5% w/v; 3 days; control = 100%
Procedure: To carry out the test, melanocytes (B16 cell line) were incubated for 3 days at 37° C./5% CO2 in a standard growth medium for cell cultures containing foetal calf serum (FCS). The growth medium was then replaced by a standard medium with which the substances to be tested were adjusted to different concentrations. After incubation for 3 days, the number of living cells was determined through the cell protein content (Bradford's method) and the content of synthesized melanin—recorded in the cell homogenizate at an optical density of 475 nm. The results are expressed in % against a control of pure cell culture medium.

OC[C@H]1O[C@@H](Oc2ccc(O)cc2)[C@H](O)[C@@H](O)[C@@H]1O [Arbutin]
Cell protein content: 81% | Melanin content: 35%

From US20040142007A1, “Cosmetic preparations containing an extract of germinating plants” (priority 2001, published 2004)
